Laboratory results from US10544143B2, “4-azaindole compounds” (BRISTOL-MYERS SQUIBB COMPANY, priority 2017, dated 2020).

Legend:
human TLR7 = human TLR7 (Homo sapiens (Human), UniProt Q9NYK1); experiment: TLR7 inhibition reporter assay (HEK-Blue SEAP); assay type: cell-based; details: HEK-Blue cells overexpressing human TLR7, gardiquimod 7.5 μM stimulation, SEAP reporter
human TLR8 = human TLR8 (Homo sapiens (Human), UniProt Q9NR97); experiment: TLR8 inhibition reporter assay (HEK-Blue SEAP); details: read-out: TLR8 IC50; HEK-Blue cells overexpressing human TLR8, R848 15.9 μM stimulation, SEAP reporter;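 note: SEAP driven by IFN-β minimal promoter carrying NF-κB and AP-1 sites, compounds dosed 0.05 nM to 50 µM for 22 h, inhibition scaled between agonist-plus-DMSO and reference-inhibitor wells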
Sequence of human TLR8 (Q9NR97 27-1041): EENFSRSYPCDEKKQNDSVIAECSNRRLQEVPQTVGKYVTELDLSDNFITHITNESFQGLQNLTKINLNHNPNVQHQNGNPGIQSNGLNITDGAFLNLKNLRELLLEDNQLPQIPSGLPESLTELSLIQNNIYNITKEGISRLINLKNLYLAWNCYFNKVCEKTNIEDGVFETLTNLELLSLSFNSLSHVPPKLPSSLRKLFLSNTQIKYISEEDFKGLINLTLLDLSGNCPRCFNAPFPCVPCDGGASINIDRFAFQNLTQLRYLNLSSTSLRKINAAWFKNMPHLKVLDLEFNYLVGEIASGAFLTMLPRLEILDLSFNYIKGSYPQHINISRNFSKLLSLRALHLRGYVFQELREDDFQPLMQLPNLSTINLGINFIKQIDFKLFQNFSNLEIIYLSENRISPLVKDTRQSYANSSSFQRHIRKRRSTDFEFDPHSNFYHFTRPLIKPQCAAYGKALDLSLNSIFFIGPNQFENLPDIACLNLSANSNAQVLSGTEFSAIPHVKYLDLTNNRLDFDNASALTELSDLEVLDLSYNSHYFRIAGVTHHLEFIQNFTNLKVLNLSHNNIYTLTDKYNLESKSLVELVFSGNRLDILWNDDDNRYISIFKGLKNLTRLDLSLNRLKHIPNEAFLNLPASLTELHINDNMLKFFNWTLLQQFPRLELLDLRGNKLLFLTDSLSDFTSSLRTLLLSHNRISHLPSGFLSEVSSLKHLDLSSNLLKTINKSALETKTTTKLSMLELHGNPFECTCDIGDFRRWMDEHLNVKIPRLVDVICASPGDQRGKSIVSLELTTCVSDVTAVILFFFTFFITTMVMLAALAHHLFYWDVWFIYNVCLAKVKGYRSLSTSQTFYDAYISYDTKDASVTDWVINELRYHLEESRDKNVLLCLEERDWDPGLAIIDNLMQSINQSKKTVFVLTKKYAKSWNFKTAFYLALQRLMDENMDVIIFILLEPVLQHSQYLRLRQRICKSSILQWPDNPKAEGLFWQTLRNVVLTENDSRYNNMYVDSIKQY

human TLR9 = human TLR9 (Homo sapiens (Human), UniProt Q9NR96); experiment: TLR9 inhibition reporter assay (HEK-Blue SEAP); details: read-out: TLR9 IC50; HEK-Blue cells overexpressing human TLR9, ODN2006 5 nM stimulation, SEAP reporter;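 note: SEAP driven by an IFN-β minimal promoter with NF-κB and AP-1 sites, read after 22 h, compounds dosed 0.05 nM–50 µM, inhibition scaled between agonist plus DMSO and reference-inhibitor wells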
Sequence of human TLR9 (Q9NR96 26-1032): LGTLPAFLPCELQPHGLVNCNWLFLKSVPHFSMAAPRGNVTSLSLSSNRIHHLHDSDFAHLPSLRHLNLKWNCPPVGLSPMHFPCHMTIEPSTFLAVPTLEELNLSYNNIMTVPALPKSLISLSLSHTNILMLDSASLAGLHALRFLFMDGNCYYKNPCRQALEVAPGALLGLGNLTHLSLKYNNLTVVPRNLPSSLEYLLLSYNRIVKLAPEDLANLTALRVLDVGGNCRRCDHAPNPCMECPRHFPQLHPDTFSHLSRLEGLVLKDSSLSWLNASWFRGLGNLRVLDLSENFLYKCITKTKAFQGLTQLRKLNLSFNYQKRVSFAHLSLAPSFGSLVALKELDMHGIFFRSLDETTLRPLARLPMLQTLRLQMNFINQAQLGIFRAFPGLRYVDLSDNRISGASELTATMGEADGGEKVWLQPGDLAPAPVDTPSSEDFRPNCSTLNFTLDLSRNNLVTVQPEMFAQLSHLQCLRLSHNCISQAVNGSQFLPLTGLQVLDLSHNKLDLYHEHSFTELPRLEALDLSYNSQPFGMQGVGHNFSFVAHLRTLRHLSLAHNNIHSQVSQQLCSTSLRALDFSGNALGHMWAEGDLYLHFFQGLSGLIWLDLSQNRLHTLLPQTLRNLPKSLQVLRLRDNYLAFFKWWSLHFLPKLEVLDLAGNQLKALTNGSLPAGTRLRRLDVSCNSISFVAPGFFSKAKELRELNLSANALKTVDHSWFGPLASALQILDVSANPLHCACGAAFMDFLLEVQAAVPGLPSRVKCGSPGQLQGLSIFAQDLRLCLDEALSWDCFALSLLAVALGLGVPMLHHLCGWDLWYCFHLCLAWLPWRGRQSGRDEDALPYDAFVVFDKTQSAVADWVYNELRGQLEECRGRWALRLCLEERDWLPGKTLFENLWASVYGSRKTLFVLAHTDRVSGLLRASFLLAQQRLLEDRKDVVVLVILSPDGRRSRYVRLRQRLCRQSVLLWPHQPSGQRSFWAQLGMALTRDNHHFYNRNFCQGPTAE

Sequence of human TLR7 (Q9NYK1 27-1049): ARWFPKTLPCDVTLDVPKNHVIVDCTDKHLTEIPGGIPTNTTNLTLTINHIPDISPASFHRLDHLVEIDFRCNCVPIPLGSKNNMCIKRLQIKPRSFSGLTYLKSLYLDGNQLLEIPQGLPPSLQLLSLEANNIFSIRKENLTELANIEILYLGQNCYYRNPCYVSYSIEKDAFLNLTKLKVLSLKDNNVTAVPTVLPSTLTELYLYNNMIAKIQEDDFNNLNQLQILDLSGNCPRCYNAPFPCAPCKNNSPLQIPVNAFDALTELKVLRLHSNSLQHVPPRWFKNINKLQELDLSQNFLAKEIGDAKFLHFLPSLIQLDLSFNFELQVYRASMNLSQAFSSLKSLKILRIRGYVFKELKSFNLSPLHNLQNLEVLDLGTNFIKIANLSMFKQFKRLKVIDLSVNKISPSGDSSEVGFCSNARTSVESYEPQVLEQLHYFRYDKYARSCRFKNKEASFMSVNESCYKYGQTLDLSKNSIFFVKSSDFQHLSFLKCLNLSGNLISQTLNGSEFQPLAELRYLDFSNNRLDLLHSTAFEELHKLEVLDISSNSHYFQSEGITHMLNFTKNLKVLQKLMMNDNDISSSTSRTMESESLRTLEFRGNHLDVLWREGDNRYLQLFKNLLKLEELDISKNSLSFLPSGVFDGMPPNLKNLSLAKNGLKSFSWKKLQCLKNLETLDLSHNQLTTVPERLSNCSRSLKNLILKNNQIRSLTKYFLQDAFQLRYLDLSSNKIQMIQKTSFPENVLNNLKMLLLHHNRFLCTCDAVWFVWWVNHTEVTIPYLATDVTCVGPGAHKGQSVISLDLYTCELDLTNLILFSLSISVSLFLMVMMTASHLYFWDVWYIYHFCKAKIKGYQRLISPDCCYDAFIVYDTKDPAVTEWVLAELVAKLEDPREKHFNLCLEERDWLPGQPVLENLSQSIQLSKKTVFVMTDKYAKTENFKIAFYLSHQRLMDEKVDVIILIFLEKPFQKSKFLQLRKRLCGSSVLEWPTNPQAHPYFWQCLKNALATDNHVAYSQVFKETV

Row | IC50 (human TLR7) [nM] | IC50 (human TLR8) [nM] | IC50 (human TLR9) [nM] | Structure (SMILES)
1 | 4.8 | 94 | 3610 | COc1cc(-c2[nH]c3cc(C)c(C4CCC(N5CC6(COC6)C5)CC4)nc3c2C(C)C)cn2ncnc12 (stereo not drawn) [Example 317]
2 | 0.17 | 2.1 | 1060 | COc1cc(-c2[nH]c3cc(C)c(C4CCC(N)CC4)nc3c2C(C)C)cn2ncnc12 (stereo not drawn) [Example 318]
3 | 1 | 22 | 1480 | CCN(C)C1CCC(c2nc3c(C(C)C)c(-c4cc(OC)c5ncnn5c4)[nH]c3cc2C)CC1 (stereo not drawn) [Example 320]
4 | 1.5 | 38 | 3110 | COc1cc(-c2[nH]c3cc(C)c(C4CCC(N5CCC5)CC4)nc3c2C(C)C)cn2ncnc12 (stereo not drawn) [Example 325]
5 | 0.13 | 3.7 | 988 | COc1cc(-c2[nH]c3cc(C)c(C4CCC(N5CCC5)CC4)nc3c2C(C)C)cn2ncnc12 (stereo not drawn) [Example 326]
6 | > 3120 | > 3120 | > 50000 | COCCNC1CCC(c2nc3c(C(C)C)c(-c4cc(OC)c5ncnn5c4)[nH]c3cc2C)CC1 (stereo not drawn) [Example 327]
7 | 1.6 | 23 | 2070 | COc1cc(-c2[nH]c3cc(C)c(C4CCC(NC5CCOC5)CC4)nc3c2C(C)C)cn2ncnc12 (stereo not drawn) [Example 329]
8 | 1.3 | 88 | 2660 | COc1cc(-c2[nH]c3cc(C)c(C4CCC(N(C)Cc5ncn(C)n5)CC4)nc3c2C(C)C)cn2ncnc12 (stereo not drawn) [Example 332]
9 | 0.6 | 12 | 1460 | COc1cc(-c2[nH]c3cc(C)c(C4CCC(N(C)Cc5ncn(C)n5)CC4)nc3c2C(C)C)cn2ncnc12 (stereo not drawn) [Example 333]
10 | 4.6 | 127 | 2400 | COc1cc(-c2[nH]c3cc(C)c(C4CCC(N(C)CC(C)(C)C)CC4)nc3c2C(C)C)cn2ncnc12 (stereo not drawn) [Example 334]
11 | 21 | 350 | > 50000 | COc1cc(-c2[nH]c3cc(C)c(C4CCC(N5CC(F)(F)C5)CC4)nc3c2C(C)C)cn2ncnc12 (stereo not drawn) [Example 337]
12 | 81 | 1170 | > 50000 | COc1cc(-c2[nH]c3cc(C)c(C4CCC(N5CC(F)(F)C5)CC4)nc3c2C(C)C)cn2ncnc12 (stereo not drawn) [Example 338]
13 | 1.4 | 51 | 1870 | COc1cc(-c2[nH]c3cc(C)c(C4CCC(N(C)CCC#N)CC4)nc3c2C(C)C)cn2ncnc12 (stereo not drawn) [Example 340]
14 | 0.98 | 3.9 | 1910 | COc1cc(-c2[nH]c3cc(F)c(C4CCC(NCC5(C)COC5)CC4)nc3c2C(C)C)cn2ncnc12 (stereo not drawn) [Example 342]
15 | 0.19 | 0.54 | 1250 | COc1cc(-c2[nH]c3cc(F)c(C4CCC(N5CC6(COC6)C5)CC4)nc3c2C(C)C)cn2ncnc12 (stereo not drawn) [Example 343]
16 | 0.21 | 0.68 | 1680 | COc1cc(-c2[nH]c3cc(F)c(C4CCC(NC5COC5)CC4)nc3c2C(C)C)cn2ncnc12 (stereo not drawn) [Example 345]
17 | 0.27 | 1 | 2470 | CNC1CCC(c2nc3c(C(C)C)c(-c4cc(OC)c5ncnn5c4)[nH]c3cc2F)CC1 (stereo not drawn) [Example 347]
18 | 0.82 | 8.3 | 6960 | CNC1CCC(c2nc3c(C(C)C)c(-c4cc(OC)c5ncnn5c4)[nH]c3cc2F)CC1 (stereo not drawn) [Example 348]
19 | 7.7 | 63 | > 50000 | Cc1c(-c2[nH]c3ccc(C4CCC(=O)CC4)nc3c2C(C)C)cn2ncnc2c1C [Example 349]
20 | 0.72 | 1 | 1160 | Cc1c(-c2[nH]c3ccc(C4CCC(NC5COC5)CC4)nc3c2C(C)C)cn2ncnc2c1C (stereo not drawn) [Example 350]
21 | 0.64 | 0.96 | 940 | Cc1c(-c2[nH]c3ccc(C4CCC(N(C)C)CC4)nc3c2C(C)C)cn2ncnc2c1C (stereo not drawn) [Example 353]
22 | 2.8 | 5.1 | 2860 | Cc1c(-c2[nH]c3ccc(C4CCC(N(C)C)CC4)nc3c2C(C)C)cn2ncnc2c1C (stereo not drawn) [Example 356]
23 | 0.95 | 2.8 | 1320 | Cc1c(-c2[nH]c3ccc(C4CCC(NC(C)C)CC4)nc3c2C(C)C)cn2ncnc2c1C (stereo not drawn) [Example 358]
24 | 1.3 | 3.4 | 1410 | Cc1c(-c2[nH]c3ccc(C4CCC(N5CCCC5)CC4)nc3c2C(C)C)cn2ncnc2c1C (stereo not drawn) [Example 360]
25 | 5.3 | 15 | 4690 | Cc1c(-c2[nH]c3ccc(C4CCC(N(C)CCC#N)CC4)nc3c2C(C)C)cn2ncnc2c1C (stereo not drawn) [Example 366]

The remaining lines, values behind:

Row | Structure (SMILES) | IC50 (human TLR7) [nM] | IC50 (human TLR8) [nM] | IC50 (human TLR9) [nM]
26 | COc1cc(-c2[nH]c3cc(C)c(C4CCC(N5CC6(COC6)C5)CC4)nc3c2C(C)C)cn2ncnc12 (stereo not drawn) [Example 319] | 0.44 | 4.1 | 1690
27 | COc1cc(-c2[nH]c3cc(C)c(C4CCC(NCC(F)F)CC4)nc3c2C(C)C)cn2ncnc12 (stereo not drawn) [Example 322] | 1.7 | 19 | 7410
28 | COc1cc(-c2[nH]c3cc(C)c(C4CCC(N)CC4)nc3c2C(C)C)cn2ncnc12 (stereo not drawn) [Example 323] | 1.1 | 31 | 1360
29 | COc1cc(-c2[nH]c3cc(C)c(C4CCC(NCC(F)F)CC4)nc3c2C(C)C)cn2ncnc12 (stereo not drawn) [Example 324] | 6.6 | 240 | 20500
30 | COc1cc(-c2[nH]c3cc(C)c(C4CCC(NC5CCOC5)CC4)nc3c2C(C)C)cn2ncnc12 (stereo not drawn) [Example 328] | 0.08 | 1.1 | 576
31 | COc1cc(-c2[nH]c3cc(C)c(C4CCC(N(C)C5COC5)CC4)nc3c2C(C)C)cn2ncnc12 (stereo not drawn) [Example 330] | 0.14 | 4.8 | 2970
32 | COc1cc(-c2[nH]c3cc(C)c(C4CCC(N(C)C5COC5)CC4)nc3c2C(C)C)cn2ncnc12 (stereo not drawn) [Example 331] | 1.7 | 34 | 1910
33 | COc1cc(-c2[nH]c3cc(C)c(C4CCC(N(C)CC(C)(C)C)CC4)nc3c2C(C)C)cn2ncnc12 (stereo not drawn) [Example 336] | 2.8 | 48 | 3440
34 | COc1cc(-c2[nH]c3cc(C)c(C4CCC(N(C)CCC#N)CC4)nc3c2C(C)C)cn2ncnc12 (stereo not drawn) [Example 339] | 0.2 | 7.1 | 5890
35 | COc1cc(-c2[nH]c3cc(F)c(C4CCC(NCC5(C)COC5)CC4)nc3c2C(C)C)cn2ncnc12 (stereo not drawn) [Example 341] | 0.12 | 0.32 | 2640
36 | COc1cc(-c2[nH]c3cc(F)c(C4CCC(N5CC6(COC6)C5)CC4)nc3c2C(C)C)cn2ncnc12 (stereo not drawn) [Example 344] | 0.72 | 4.8 | 2790
37 | COc1cc(-c2[nH]c3cc(F)c(C4CCC(NC5COC5)CC4)nc3c2C(C)C)cn2ncnc12 (stereo not drawn) [Example 346] | 0.32 | 6 | 6290
38 | Cc1c(-c2[nH]c3ccc(C4CCC(NC5COC5)CC4)nc3c2C(C)C)cn2ncnc2c1C (stereo not drawn) [Example 351] | 2.3 | 4.3 | 1690
39 | Cc1c(-c2[nH]c3ccc(C4CCC(NCC(=O)N(C)C)CC4)nc3c2C(C)C)cn2ncnc2c1C (stereo not drawn) [Example 352] | 5.4 | 9.2 | 2320
40 | Cc1c(-c2[nH]c3ccc(C4CCC(NCC(=O)N(C)C)CC4)nc3c2C(C)C)cn2ncnc2c1C (stereo not drawn) [Example 354] | 1 | 2.3 | 790
41 | Cc1c(-c2[nH]c3ccc(C4CCC(N(C)C)CC4)nc3c2C(C)C)cn2ncnc2c1C (stereo not drawn) [Example 355] | 2.6 | 10 | 4500
42 | Cc1cnc(CNC2CCC(c3ccc4[nH]c(-c5cn6ncnc6c(C)c5C)c(C(C)C)c4n3)CC2)cn1 (stereo not drawn) [Example 357] | 3.9 | 4.4 | 1050
43 | Cc1cnc(CNC2CCC(c3ccc4[nH]c(-c5cn6ncnc6c(C)c5C)c(C(C)C)c4n3)CC2)cn1 (stereo not drawn) [Example 359] | 9.1 | 29 | 4870
44 | Cc1c(-c2[nH]c3ccc(C4CCC(N(C)CCC#N)CC4)nc3c2C(C)C)cn2ncnc2c1C (stereo not drawn) [Example 361] | 0.79 | 1 | 1250
45 | Cc1c(-c2[nH]c3ccc(C4CCC(N5CCOCC5)CC4)nc3c2C(C)C)cn2ncnc2c1C (stereo not drawn) [Example 362] | 1.6 | 5.1 | 1630
46 | Cc1c(-c2[nH]c3ccc(C4CCC(NC(C)C)CC4)nc3c2C(C)C)cn2ncnc2c1C (stereo not drawn) [Example 363] | 3.3 | 6.6 | 1480
47 | Cc1c(-c2[nH]c3ccc(C4CCC(N(C)C(C)C)CC4)nc3c2C(C)C)cn2ncnc2c1C (stereo not drawn) [Example 364] | 1.5 | 9.6 | 2520
48 | Cc1c(-c2[nH]c3ccc(C4CCC(N(C)CCO)CC4)nc3c2C(C)C)cn2ncnc2c1C (stereo not drawn) [Example 365] | 4.2 | 7.9 | 3200
49 | Cc1c(-c2[nH]c3ccc(C4CCC(N(C)CC(=O)N(C)C)CC4)nc3c2C(C)C)cn2ncnc2c1C (stereo not drawn) [Example 368, 2-((4-(2-(7,8-dimethyl-[1,2,4]triazolo[1,5-a]pyridin-6-yl)-3-isopropyl-1H-pyrrolo[3,2-b]pyridin-5-yl)cyclohexyl)(methyl)amino)-N,N-dimethylacetamide] | 1.5 | 2.5 | 1610
50 | Cc1c(-c2[nH]c3ccc(C4CCC(N5CC(F)(F)C5)CC4)nc3c2C(C)C)cn2ncnc2c1C (stereo not drawn) [Example 370] | 8.6 | 23 | > 50000
51 | C#CCNC1CCC(c2ccc3[nH]c(-c4cn5ncnc5c(C)c4C)c(C(C)C)c3n2)CC1 (stereo not drawn) [Example 371] | 6 | 14 | 4360
